From patent US20160016951A1 (Merck Patent GmbH, priority 2014, published 2016) come the findings set out here.

T1 sequence (P49336 whole entry): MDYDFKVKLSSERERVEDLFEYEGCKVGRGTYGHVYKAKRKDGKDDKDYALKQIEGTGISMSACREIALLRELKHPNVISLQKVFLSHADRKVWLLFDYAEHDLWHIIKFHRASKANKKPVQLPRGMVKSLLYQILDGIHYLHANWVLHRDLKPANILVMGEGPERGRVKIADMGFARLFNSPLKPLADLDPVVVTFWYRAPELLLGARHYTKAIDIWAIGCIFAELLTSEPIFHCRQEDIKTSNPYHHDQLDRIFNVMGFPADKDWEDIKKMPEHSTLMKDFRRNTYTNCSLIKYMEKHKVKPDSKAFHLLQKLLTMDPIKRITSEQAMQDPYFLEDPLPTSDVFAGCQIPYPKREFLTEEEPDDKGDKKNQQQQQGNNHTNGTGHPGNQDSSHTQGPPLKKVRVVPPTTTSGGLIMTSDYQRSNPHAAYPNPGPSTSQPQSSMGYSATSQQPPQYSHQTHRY
T1 sequence (P24863 whole entry partner): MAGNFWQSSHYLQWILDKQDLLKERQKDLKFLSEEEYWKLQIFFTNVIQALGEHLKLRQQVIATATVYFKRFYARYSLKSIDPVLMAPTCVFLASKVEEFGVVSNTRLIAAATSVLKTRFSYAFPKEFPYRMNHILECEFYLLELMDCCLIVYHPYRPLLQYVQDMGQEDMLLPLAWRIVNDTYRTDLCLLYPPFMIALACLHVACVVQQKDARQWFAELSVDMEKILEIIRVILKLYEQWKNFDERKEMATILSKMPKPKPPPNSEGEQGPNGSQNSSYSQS

The first test addresses T1, CDK8 (CDK8/CycC) (Homo sapiens, UniProt P49336).
T1 construct: purchased Invitrogen PV4402
The experiment in a line: FRET based Lanthascreen binding competition assay.
Conditions: not given
In a few lines:
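CDK8 co-expressed with CycC and labelled through biotinylated anti-His antibody and streptavidin-Eu was preincubated with compound for 20 min at RT. An Alexa647 ATP-competitive probe was then added for 60 min at RT in the dark. Probe displacement was read as loss of TR-FRET (excitation 340 nm, emission 650 nm).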
For orientation: TR-FRET usually uses a lanthanide donor and a delayed reading to cut background.
The IC50 is the concentration that gives 50% inhibition. Consider `COC1CN(C(=O)c2ccc3cncc(-c4ccc5nn(CC(C)(C)O)cc5c4)c3c2)C1` [Compound 133, (4-(2-(2-hydroxy-2-methylpropyl)-2H-indazol-5-yl)isoquinolin-6-yl)(3-methoxyazetidin-1-yl)methanone], for which the IC50 lay in the range of 10 to 100 nM.

Still in this test, the particulars now being: 5 nM CDK8/CycC, 10 nM Alexa647-Tracer, 1% DMSO, 60 min at RT; read-out: IC50 CDK8 binding.
As for `CC1CC(=O)N(c2ccc3cncc(-c4ccc(-c5cnn(C)c5)cc4)c3c2)C1` (stereo not drawn) [Compound 111, 4-Methyl-1-{4-[4-(1-methyl-1H-pyrazol-4-yl)-phenyl]-isoquinolin-6-yl}-pyrrolidin-2-one], the IC50 lay within 10 to 100 nM.
As to `O=C(c1ccc2cnccc2c1)N1CCC[C@H]1c1ccc(Cl)cc1` [Compound 113, (S)-(2-(4-chlorophenyl)pyrrolidin-1-yl)(isoquinolin-6-yl)methanone], the IC50 was in the range of 10 to 100 nM.
The same measure, in the same setting: the figure for `CC1CCC(=O)N1c1ccc2cncc(-c3ccc(-c4cnn(C)c4)cc3)c2c1` (stereo not drawn) [Compound 114, 5-Methyl-1-{4-[4-(1-methyl-1H-pyrazol-4-yl)-phenyl]-isoquinolin-6-yl}-pyrrolidin-2-one] is 10 to 100 nM.
In the case of `Cn1cc(-c2ccc(-c3cncc4ccc(N5CCC(=O)C5)cc34)cc2)cn1` [Compound 115, 1-{4-[4-(1-Methyl-1H-pyrazol-4-yl)-phenyl]-isoquinolin-6-yl}-pyrrolidin-3-one], the IC50 lay within 10 to 100 nM.
As to `Cn1cc(-c2ccc(-c3cncc4ccc(N5CCNC(=O)C5)cc34)cc2)cn1` [Compound 116, 4-{4-[4-(1-Methyl-1H-pyrazol-4-yl)-phenyl]-isoquinolin-6-yl}-piperazin-2-one], the IC50 was in the range of 10 to 100 nM.
As for `Cn1cc(-c2ccc(-c3cncc4ccc(-c5nnn(C)n5)cc34)cc2)cn1` [Compound 117, 4-(4-(1-methyl-1H-pyrazol-4-yl)phenyl)-6-(2-methyl-2H-tetrazol-5-yl)isoquinoline], the IC50 lay in the range of 10 to 100 nM.
The same measure, in the same setting: the figure for `Cn1cc(-c2ccc(-c3cncc4ccc(C#N)cc34)cc2)cn1` [Compound 118, 4-(4-(1-methyl-1H-pyrazol-4-yl)phenyl)isoquinoline-6-carbonitrile] is 10 to 100 nM.
For `Cn1ncc2cc(-c3cncc4ccc(C#N)cc34)ccc21` [Compound 120, 4-(1-methyl-1H-indazol-5-yl)isoquinoline-6-carbonitrile], the IC50 lay in the range of 10 to 100 nM.
As to `COCC(=O)Nc1ccc2cncc(-c3ccc(-c4cnn(C)c4)cc3)c2c1` [Compound 121, 2-Methoxy-N-{4-[4-(1-methyl-1H-pyrazol-4-yl)-phenyl]-isoquinolin-6-yl}-acetamide], the IC50 is 10 to 100 nM.
The same measure, in the same setting: the figure for `O=C(c1ccc2cnccc2c1)N1CCC[C@H]1c1ccccc1` [Compound 122, (S)-isoquinolin-6-yl(2-phenylpyrrolidin-1-yl)methanone] is 10 to 100 nM.
For `Cn1cc(-c2ccc(-c3cncc4ccc(-c5nnnn5C)cc34)cc2)cn1` [Compound 123, 4-(4-(1-methyl-1H-pyrazol-4-yl)phenyl)-6-(1-methyl-1H-tetrazol-5-yl)isoquinoline], the IC50 lay in the range of 10 to 100 nM.
Consider `Cn1cc(-c2ccc(-c3cncc4ccc(C(=O)N5CCN(C(=O)OC(C)(C)C)CC5)cc34)cc2)cn1` [Compound 124, tert-butyl 4-(4-(4-(1-methyl-1H-pyrazol-4-yl)phenyl)isoquinoline-6-carbonyl)piperazine-1-carboxylate], for which the IC50 is 101 to 500 nM.
In the case of `CC(=O)N1CCN(c2ccc3cncc(-c4ccc(-c5cnn(C)c5)cc4)c3c2)CC1` [Compound 125, 1-(4-{4-[4-(1-Methyl-1H-pyrazol-4-yl)-phenyl]-isoquinolin-6-yl}-piperazin-1-yl)-ethanone], the IC50 fell in the range of 101 to 500 nM.
`Cn1cc(-c2ccc(-c3cncc4ccc(N5C(=O)CCC5=O)cc34)cc2)cn1` [Compound 126, 1-{4-[4-(1-Methyl-1H-pyrazol-4-yl)-phenyl]-isoquinolin-6-yl}-pyrrolidine-2,5-dione]: the IC50 lay within 101 to 500 nM.
For `Cn1cc(-c2ccc(-c3cncc4ccc(N5CCCCC5=O)cc34)cc2)cn1` [Compound 127, 1-{4-[4-(1-Methyl-1H-pyrazol-4-yl)-phenyl]-isoquinolin-6-yl}-piperidin-2-one], the IC50 was in the range of 501 to 1000 nM.
`Cn1cc(-c2ccc(-c3cncc4ccc(N5CCCC5=O)cc34)cc2)cn1` [Compound 128, 1-(4-(4-(1-Methyl-1H-pyrazol-4-yl)phenyl)isoquinolin-6-yl)pyrrolidin-2-one]: the IC50 lay in the range of 10 to 100 nM.
As to `CN1c2ccc(-c3cncc4ccc(N5CCCC5=O)cc34)cc2CS1(=O)=O` [Compound 129, 1-(4-(1-Methyl-2,2-dioxido-1,3-dihydrobenzo[c]isothiazol-5-yl)isoquinolin-6-yl)pyrrolidin-2-one], the IC50 was in the range of 10 to 100 nM.
In the case of `COC1CN(C(=O)c2ccc3cncc(-c4ccc(-c5cnn(CC(C)(C)O)c5)cc4)c3c2)C1` [Compound 131, (4-(4-(1-(2-hydroxy-2-methylpropyl)-1H-pyrazol-4-yl)phenyl)isoquinolin-6-yl)(3-methoxyazetidin-1-yl)methanone], the IC50 was 10 to 100 nM.
Regarding `COC1CN(C(=O)c2ccc3cncc(-c4ccc5c(cnn5CC(C)(C)O)c4)c3c2)C1` [Compound 132, (4-(1-(2-hydroxy-2-methylpropyl)-1H-indazol-5-yl)isoquinolin-6-yl)(3-methoxyazetidin-1-yl)methanone], the IC50 lay within 101 to 500 nM.
As for `CC(C)(O)Cn1cc(-c2ccc(-c3cncc4ccc(C(=O)N5CCCC5)cc34)cc2)cn1` [Compound 134], the IC50 was 10 to 100 nM.
With `CC(C)(O)Cn1cc(-c2ccc(-c3cncc4ccc(C(=O)N5CCOCC5)cc34)cc2)cn1` [Compound 135], the IC50 was in the range of 10 to 100 nM.
With `CC(C)(O)Cn1cc(-c2ccc(-c3cncc4ccc(C(=O)N5CC(F)(F)C5)cc34)cc2)cn1` [Compound 136], the IC50 fell in the range of 10 to 100 nM.
Take `Nc1nccc2cc(C(=O)N3CCC[C@H]3c3ccc(Cl)cc3)ccc12` [Compound 137, (S)-(1-aminoisoquinolin-6-yl)(2-(4-chlorophenyl)pyrrolidin-1-yl)methanone]: the IC50 was in the range of 10 to 100 nM.
Consider `CC(C)(O)Cn1cc(-c2ccc(-c3cncc4ccc(NS(C)(=O)=O)cc34)cc2)cn1` [Compound 138, N-(4-(4-(1-(2-hydroxy-2-methylpropyl)-1H-pyrazol-4-yl)phenyl)isoquinolin-6-yl)methanesulfonamide], for which the IC50 was under 10 nM.
For the compound `CN(c1ccc2cncc(-c3ccc(-c4cnn(C)c4)cc3)c2c1)S(C)(=O)=O` [Compound 139, N-methyl-N-(4-(4-(1-methyl-1H-pyrazol-4-yl)phenyl)isoquinolin-6-yl)methanesulfonamide], the IC50 fell in the range of 10 to 100 nM.
Consider `COC1CN(C(=O)c2ccc3c(N)ncc(-c4ccc5c(cnn5C)c4)c3n2)C1` [Compound 140, (5-amino-8-(1-methyl-1H-indazol-5-yl)-1,6-naphthyridin-2-yl)(3-methoxyazetidin-1-yl)methanone], for which the IC50 lay within 10 to 100 nM.
Turning to `O=C1Cc2ccc(-c3cncc4ccc(C(=O)N5CCC5)cc34)cc2N1` [Compound 145, 6-(6-(azetidine-1-carbonyl)isoquinolin-4-yl)indolin-2-one], the IC50 is under 10 nM.
Regarding `O=C1Cc2ccc(-c3cncc4ccc(C(=O)N5CC(F)(F)C5)cc34)cc2N1` [Compound 146, 6-(6-(3,3-difluoroazetidine-1-carbonyl)isoquinolin-4-yl)indolin-2-one], the IC50 lay in the range of 10 to 100 nM.
Take `N#Cc1ccc2cncc(-c3ccc4c(c3)NC(=O)C4)c2c1` [Compound 148, 4-(2-oxoindolin-6-yl)isoquinoline-6-carbonitrile]: the IC50 fell in the range of 10 to 100 nM.
Turning to `COC1(C)CN(C(=O)c2ccc3cncc(-c4ccc(-c5cnn(C)c5)cc4)c3n2)C1` [Compound 149, (3-methoxy-3-methylazetidin-1-yl)(8-(4-(1-methyl-1H-pyrazol-4-yl)phenyl)-1,6-naphthyridin-2-yl)methanone], the IC50 is under 10 nM.
Consider `CC(C)(O)Cn1cc(-c2ccc(-c3cncc4ccc(N5C(=O)Cc6ccccc65)cc34)cc2)cn1` [Compound 150, 1-(4-(4-(1-(2-hydroxy-2-methylpropyl)-1H-pyrazol-4-yl)phenyl)isoquinolin-6-yl)indolin-2-one], for which the IC50 was in the range of 10 to 100 nM.
The same measure, in the same setting: the figure for `CC(C)(O)Cn1cc2cc(-c3cncc4ccc(NS(C)(=O)=O)cc34)ccc2n1` [Compound 151, N-(4-(2-(2-hydroxy-2-methylpropyl)-2H-indazol-5-yl)isoquinolin-6-yl)methanesulfonamide] is under 10 nM.
As to `Cn1cc(-c2ccc(-c3cncc4ccc(NS(=O)(=O)c5ccccc5)cc34)cc2)cn1` [Compound 152, N-{4-[4-(1-Methyl-1H-pyrazol-4-yl)-phenyl]-isoquinolin-6-yl}-benzenesulfonamide], the IC50 was under 10 nM.
Turning to `COC1CN(C(=O)c2ccc3cncc(-c4ccc(-c5cnn(C(C)C)c5)cc4)c3n2)C1` [Compound 153, (8-(4-(1-isopropyl-1H-pyrazol-4-yl)phenyl)-1,6-naphthyridin-2-yl)(3-methoxyazetidin-1-yl)methanone], the IC50 is under 10 nM.
`Nc1ncc(-c2ccc3c(c2)NC(=O)C3)c2cc(C(=O)N3CC(F)(F)C3)ccc12` [Compound 154, 6-(1-amino-6-(3,3-difluoroazetidine-1-carbonyl)isoquinolin-4-yl)indolin-2-one]: the IC50 lay within 10 to 100 nM.
Turning to `COC1CN(C(=O)c2ccc3cncc(-c4ccc5c(c4)CCC(=O)N5C)c3c2)C1` [Compound 155, 6-[6-(3-Methoxy-azetidine-1-carbonyl)-isoquinolin-4-yl]-1-methyl-3,4-dihydro-1H-quinolin-2-one], the IC50 fell in the range of 10 to 100 nM.
On to `COC1CN(C(=O)c2ccc3cncc(-c4ccc(-c5ccn(C)n5)cc4)c3n2)C1` [Compound 156, (3-methoxyazetidin-1-yl)(8-(4-(1-methyl-1H-pyrazol-3-yl)phenyl)-1,6-naphthyridin-2-yl)methanone], for which the IC50 fell in the range of 10 to 100 nM.
With `CC(C)S(=O)(=O)Nc1ccc2cncc(-c3ccc(-c4cnn(C)c4)cc3)c2c1` [Compound 157, Propane-2-sulfonic acid {4-[4-(1-methyl-1H-pyrazol-4-yl)-phenyl]-isoquinolin-6-yl}-amide], the 50% inhibitory concentration (IC50) was under 10 nM.
